In patent publication US20220242812A1, “SWELL1-LRRC8 COMPLEX MODULATORS” (Washington University, priority 2019, published 2022):
“Also recorded” adds a separate entry of the source.

Tests used:
[1] = system: endogenous SWELL1 plasma membrane localization; assay type: cell-based; settings: 3T3-F442A preadipocytes, 1 or 10 μM 48 h, compared to vehicle or SN071
Experimental: 3T3-F442A preadipocytes (WT, KO) and differentiated adipocytes without or with SWELL1 overexpression (WT+SWELL1 O/E, KO+SWELL1 O/E) were prepared as described in the Cell culture section on collagen coated coverslips. […] Either anti-SWELL1 (1:400) or anti-Flag (1:1500, Sigma #F3165) antibody were added to the cells and incubated overnight at 4° C. The cells were then washed three times (1×PBS) prior and post to the addition of 1:1000 Alexa Flour 488/568 secondary antibody (anti-rabbit, #A11034 or anti-mouse, #A11004) for 1 hour at RT. Cells were counterstained with nuclear TO-PRO-3 (Life Technologies, #T3605) or DAPI (Invitrogen, #D1306) staining (1 μM) for 20 min followed by three washes with 1×PBS. Coverslips were further mounted on slides with Prolong Diamond anti-fading media. All images were captured using Zeiss LSM700/LSM510 confocal microscope with 63× objective (NA 1.4). SWELL1 membrane localization was quantified by stacking all the z-images and converting it into a binary image where the cytoplasmic intensity per unit area was subtracted from the total cell intensity per unit area using ImageJ software.

[2] = molecular target: T1, SWELL1-LRRC8 channel (ICl,SWELL) in HEK-293 cells (Homo sapiens, UniProt Q8IWT6); test: ICl,SWELL inhibition after hypotonic activation, patch-clamp in HEK-293 cells; assay type: cell-based
T1 construct: endogenous in cells; host or cells: HEK-293 (ATCC CRL-1573)
Experimental: Mean presented±SEM. Two-tailed unpaired t-test was used. *, **, and *** represents p<0.05, p<0.01 and p<0.001, respectively.
(§1) Patch-clamp recordings of β-cells and mature adipocytes were performed as described previously (Kang et al., 2018; Zhang et al., 2017). 3T3-F442A WT and KO preadipocytes were prepared as described in the Cell culture section above. For SWELL1 overexpression recordings, preadipocytes were first transduced with Ad5-CAG-LoxP-stop-LoxP-3×Flag-SWELL1 (MOI 12) in 2% FBS culture medium for two days and then overexpression induced by adding Ad5-CMV-Cre-wt-lRES-eGFP (MOI 10-12) in 2% FBS culture medium for two more days and changed to 10% FBS containing culture media and were selected based on GFP expression (˜2-3 days). For cell recordings, islets were transduced with Ad-RIP2-GFP and then dispersed after 48-72 hours for patch-clamp experiments. GFP+ cells marked β-cells selected for patch-clamp recordings. […] Recordings were measured using […] amplifier paired to a Digidata 1550 digitizer using pClamp 10.4 software. The extracellular buffer composition for hypotonic stimulation contains 90 mM NaCl, 2 mM CsCl, 1 mM MgCl, 1 mM CaCb, 10 mM HEPES, 10 mM Mannitol, pH 7.4 with NaOH (210 mOsm/kg). The extracellular isotonic buffer composition is same as above except for Mannitol concentration of 110 mM (300 mOsm/kg). The composition of intracellular buffer is 120 mM L-aspartic acid, 20 mM CsCl, 1 mM MgCl, 5 mM EGTA, 10 mM HEPES, 5 mM MgATP, 120 mM CsOH, 0.1 mM GTP, pH 7.2 with CsOH. All recordings were carried out at room temperature (RT) with HEK-293 cells, β-cells and 3T3-F442A cells performed in whole-cell configuration and human adipocytes in perforated-patch configuration, as previously described (Kang et al., 2018; Zhang et al., 2017).

[3] = system: islets, glucose-stimulated insulin secretion; test: Islet perifusion GSIS assay, islets from treated T2D mice; assay type: in vivo
Experimental: For patch-clamp studies involving primary mouse cells, the mice were anesthesized by injecting Avertin (0.0125 g/ml in H2O) followed by cervical dislocation. […] Perifusion buffer contained (in mM): 120 NaCl, 24 NaHCO3, 4.8 KCl, 2.5 CaCl, 1.2 MgSO4, 10 HEPES, 2.8 glucose, 27.2 mannitol, 0.25% w/v bovine serum albumin, pH 7.4 with NaOH (300 mOsm/kg). Perifusion buffer kept at 37° C. was circulated at 120 μI/min After 48 min of washing with 2.8 mM glucose solution for stabilization, islets were stimulated with the following sequence: 16 min of 16.7 mM glucose, 40 min of 2.8 mM glucose, 10 min of 30 mM KCl, and 12 min of 2.8 mM glucose. Osmolarity was matched by adjusting mannitol concentration when preparing solution containing 16.7 mM glucose. Serial samples were collected either every 1 or 2 min into 96 wells kept at 4° C. Insulin concentrations were further determined using commercially available ELISA kit (Mercodia). The area under the curve (AUC) for the high-glucose induced insulin release was calculated for time points between 50 to 74/84 min. At the completion of the experiments, islets were further lysed by addition of RIPA buffer and the amount of insulin was detected by ELISA.

[4] = molecular target: T2, CYP 2D6 (Homo sapiens, UniProt P10635); test: Cytochrome P450 inhibition assay, CYP 2D6; assay type: in vitro ADME; settings: human liver microsomes
T2 construct: Human liver microsomes were diluted in Potassium phosphate buffer; tissue Charles River Laboratory (performed the study); host or cells: human liver microsomes

[5] = In vivo pharmacokinetics in mice; settings: for bioavailability: male, C57/BL6, mouse, plasma, po, 5 mg/kg, AUCp.o./AUCi.v.; for AUCinf / Cmax / T-half: single dose 5 mg/kg
Experimental: Male C57/BL6 mice were used in the study and assessed for a single dose (5 mg/kg) administration. The compounds were prepared in Cremaphor for i.p. and p.o dose routes and in 5% ethanol, 10% Tween-20 and water mix for i.v. route at a final concentration of 1 mg/ml. […] The blood samples were collected in tubes with K2 EDTA anticoagulant and further processed to collect plasma by centrifugation at 3500 rpm at 5° C. for 10 min Samples were further processed in LC/MS to determine the concentration of the compounds. Non-compartmental analysis was performed to obtain the PK parameters using the PKPlus software package (Simulation Plus). The area under the plasma concentration-time curve (AUCint) is calculated from time 0 to infinity where the Cmax is the maximal concentration achieved in plasma and t112 is the terminal elimination half-life. Oral bioavailability was calculated as AUCorailAUC1v*100.

[6] = molecular target: T3, closed SWELL1-LRRC8 channel in HEK-293 cells (Homo sapiens, UniProt Q8IWT6); test: ICl,SWELL inhibition on application to the closed SWELL1-LRRC8 channel (30 min preincubation), HEK-293 cells; assay type: cell-based; settings: 30 minutes prior to hypotonic activation
T3 construct: endogenous in cells; host or cells: HEK-293 (ATCC CRL-1573)
Experimental: as §1

CCCCC1(C2CCCC2)Cc2cc(OCCCC(=O)O)c(Cl)c(Cl)c2C1=O (stereo not shown) [SN-401, 4-((2-butyl-6,7-dichloro-2-cyclopentyl-1-oxo-2,3-dihydro-1H-inden-5-yl)oxy)butanoic acid]
Plasma membrane (PM) localization of endogenous SWELL1 [1]: enhanced
Concentration required for inhibiting activated SWELL1-LRRC8 ([2]; upon hypotonic stimulation): ~10 µM
Perifusion GSIS from isolated islets ([3]; HFD mice, 21 weeks HFD): significantly improved
IC50 [4]: > 10 µM
bioavailability [5]: 79%
AUCinf ([5]; Intraperitoneal): 23030 ng·h/mL
Cmax ([5]; Intraperitoneal): 4367 ng/mL
T-half ([5]; Intraperitoneal): 2.056 h
AUCinf ([5]; Intravenous): 5958 ng·h/mL
Cmax ([5]; Intravenous): 5443 ng/mL
T-half ([5]; Intravenous): 1.428 h
AUCinf ([5]; Oral): 4682 ng·h/mL
Cmax ([5]; Oral): 781 ng/mL
T-half ([5]; Oral): 2.585 h
Subsequent hypotonic SWELL1-LRRC8 activation ([6]; 250 nM): markedly suppresses and delays
Subsequent hypotonic SWELL1-LRRC8 activation ([6]; 1 μM): markedly suppresses and delays

CCCCC1(C2CCCC2)Cc2cc(OCCCCCC(=O)O)c(Cl)c(Cl)c2C1=O (stereo not shown) [SN-406, 6-((2-butyl-6,7-dichloro-2-cyclopentyl-1-oxo-2,3-dihydro-1H-inden-5-yl)oxy)hexanoic acid]
Plasma membrane (PM) localization of endogenous SWELL1 [1]: enhanced
On-target inhibition of ICl,SWELL ([2]; HEK-293 cells, hypotonic (210 mOsm), 10 and 7 μM, relative to SN-401): maintained or enhanced; also recorded: increase
Insulin secretion in perifusion GSIS ([3]; islets of HFD T2D mice, compared to SN071): significantly augmented
IC50 [4]: > 10 µM
Plasma concentrations relative to ICl,SWELL inhibitory concentrations ([5]; 5 mg/kg i.p. dosing): transiently approach
Plasma concentrations relative to ICl,SWELL inhibitory concentrations ([5]; 5 mg/kg p.o. dosing): remain well below
bioavailability [5]: 48%
AUCinf ([5]; Intraperitoneal): 18180 ng·h/mL
Cmax ([5]; Intraperitoneal): 4300 ng/mL
T-half ([5]; Intraperitoneal): 1.809 h
AUCinf ([5]; Intravenous): 6532 ng·h/mL
Cmax ([5]; Intravenous): 15130 ng/mL
T-half ([5]; Intravenous): 0.7689 h
AUCinf ([5]; Oral): 3131 ng·h/mL
Cmax ([5]; Oral): 660.7 ng/mL
T-half ([5]; Oral): 2.058 h
Subsequent hypotonic SWELL1-LRRC8 activation ([6]; 250 nM): markedly suppresses and delays
Subsequent hypotonic SWELL1-LRRC8 activation ([6]; 1 μM): markedly suppresses and delays
